Laboratory results from patent US5834500A, “Sulfur-containing heterocyclic bradykinin antagonists, process for their preparation, and their use” (Hoechst Aktiengesellschaft, priority 1996, dated 1998).

Experiments:
[1] = target: T1, bradykinin B2 receptor (Cavia porcellus, UniProt O70526); experiment: binding to the bradykinin B2 receptor of guinea pig ileum (3H-bradykinin competition); conditions: guinea pig ileum membranes, 3H-bradykinin 0.25 to 0.3 nmol/l; read-out: antagonistic effect expressed as IC50-value on the guinea pig B2 receptor
T1 construct: from tissue; host or cells: guinea pig ileum membranes
T1 sequence (O70526 1-372): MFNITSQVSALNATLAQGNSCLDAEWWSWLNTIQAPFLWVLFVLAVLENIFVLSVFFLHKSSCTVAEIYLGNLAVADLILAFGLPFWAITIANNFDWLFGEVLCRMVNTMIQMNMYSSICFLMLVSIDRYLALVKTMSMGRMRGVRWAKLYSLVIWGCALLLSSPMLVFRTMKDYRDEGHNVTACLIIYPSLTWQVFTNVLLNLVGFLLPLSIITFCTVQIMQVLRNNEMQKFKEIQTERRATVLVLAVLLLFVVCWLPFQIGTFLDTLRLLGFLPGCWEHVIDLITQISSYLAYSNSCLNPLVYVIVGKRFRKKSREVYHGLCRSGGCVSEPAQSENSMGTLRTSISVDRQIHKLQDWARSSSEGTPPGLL
Experimental: The method of measuring binding to the bradykinin B2 receptor of guinea pig ileum is described below (R. B. Innis et al., Proc. NatI. Acad. Sci. USA; 17 (1981) 2630): […] Ligand: ^3 H-BRADYKININ (from NEN Du Pont) 2. Buffer mixtures: a) TES buffer: 25 mM TES (SIGMA, Cat. No.: T-4152) […] Cat. No.: P-9375) b) Incubation buffer: 25 mM TES (SIGMA; Cat. No.: T-4152) […] Cat. No.: P-9375) […] Cat. No.: A-7906) 140 μg/ml bacitracin (SIGMA; Cat. No.: B-0125) […] Cat. No.: D-0632) […] Both buffers are adjusted to pH 6.8 with 5 molar NaOH. 3. Membrane preparation: Guinea pig ilea are roughly freed of intestinal contents by carefully smoothing them out and are cleansed in 0.9% NaCl solution. The approx. 2 cm-long ilea pieces are transferred into ice-cold TES buffer (approx. 1 g/10 ml) and homogenized with an Ultraturrax for approx. 30 sec. in an ice bath. The homogenate is then filtered through 3 layers of gauze and the filtrate is centrifuged at 50,000 g for 10 minutes. The supernatant is discarded and the pellet is rehomogenized in the same volume of TES buffer and centrifuged once again at 50,000 g for 10 minutes. The pellet is rehomogenized in incubation buffer (approx. 1 g/5 ml) and frozen down at -70° C., in 2 ml aliquots, in cryotubes. The protein concentration of the finished membrane suspension is determined by the LOWRY method and should be approx. 15 μg/100 μl. 4. Binding test: All the incubations are carried out, at room temperature for 60 minutes, in a 200 μl volume on microtiter plates (96×300 μl). All the mixtures are in incubation buffer. For this, 50 μl of the radioligand, 50 μl of the preparation to be tested and 100 μl of the membrane suspension are pipetted consecutively into the wells of the microtiter plate. b) Competition experiments (IC50): A fixed quantity of the radioactive ligand (from 0.25 to 0.3 nmol/l ^3 H-bradykinin) and different concentrations of the unlabeled agonists or antagonists are employed for this purpose. 50 μl of the preparations or the standards to be tested, are added, in concentrations of from 10^-5 to 10^-10 mol/l, to in each case 50 μl of the ^3 H-bradykinin solution and the reaction is started by adding 100 μl of membrane suspension. […] As a rule, the preparations which are to be tested for competition are dissolved, at a concentration of 1 mmol/l, in dimethyl sulfoxide (DMSO) and subsequently subjected to further dilution with DMSO. This solution is then diluted 1:25 with incubation buffer. […] The filters, which are still moist, are punched out into mini scintillation vials, which are filled with 3 ml of scintillator. After having been left to soak for approx. 12 hours, the samples are shaken up briefly and measured in a beta counter. c) Screening: […] 4. Evaluation: The evaluation is effected by means of the LIGAND program package (McPherrson, Minson & Rodbard, Marketing: Elsevier-BIOSOFT), which performs the necessary calculations for determining IC50 and Ki values. This program also performs graphic depictions of the saturation and displacement curves and also SCATCHARD plots, HILL plots or HOFSTEE plots.

[2] = tested on: isolated guinea pig pulmonary artery; experiment: bradykinin-induced contraction of isolated guinea pig pulmonary artery; conditions: Cavia porcellus, 10 min; isolated vessel strip, contraction by 2×10^-7 mol/l bradykinin, 10 minutes exposure; read-out: antagonistic effect expressed as IC50-value on the guinea pig pulmonary artery
Experimental: For testing the novel compounds on the isolated pulmonary artery, guinea pigs (Dunkin Hartley) having a weight of 400-450 g are killed by a blow to the neck.
The thorax is opened and the pulmonary artery is carefully dissected out. The surrounding tissue is carefully removed and the pulmonary artery is cut open spirally at an angle of 45°.
The blood vessel strip, which is 2.5 cm long and 3-4 mm wide, is fastened in a 10 ml-capacity organ bath which is filled with Ringer solution. […]
95% O2 and 5% CO2 is bubbled through the solution, which is warmed to 37° C. The pH is 7.4 and the initial load on the vessel strip is 1.0 g.
The isotonic contraction changes are detected with a lever attachment and a high frequency modem (distance measuring device) from Hugo Sachs and registered on a potentiometric recorder (BEC, Goerz Metrawatt SE 460).
The experiment is started after 1 hour of equilibration. Once the maximum sensitivity of the vessel strips to 2×10^-7 mol/l bradykinin has been reached--bradykinin causes the vessel strips to contract--the test compounds, at doses of 5×10^-8 -1×10^-5 mol/l, are allowed to exert their effect for 10 minutes in each case and, after bradykinin has been added once again, the decrease in the effect of bradykinin is compared with the control.

Row | Structure (SMILES) | IC50 [1] [nM] | IC50 [2] [nM]
1 | Cc1nc2c(OCc3c(Cl)ccc(N(C)C(=O)CNC(=O)COc4ccc(OC(F)(F)F)cc4)c3Cl)cccc2s1 [Example 37] | < 100 | < 1000
2 | C=C/C=C/C(=O)NCC(=O)N(C)c1ccc(Cl)c(COc2cccc3sc(C)nc23)c1Cl [Example 6] | < 100 | < 1000

More lines, now with the values ahead:

Row | IC50 [1] [nM] | IC50 [2] [nM] | Structure (SMILES)
3 | < 100 | < 1000 | Cc1ccc(/C=C/C(=O)NCC(=O)N(C)c2ccc(Cl)c(COc3cccc4sc(C)nc34)c2Cl)cc1 [Example 23]
4 | < 100 | < 1000 | Cc1nc2c(OCc3c(Cl)ccc(N(C)C(=O)CNC(=O)/C=C/c4ccc(C(F)(F)F)cc4)c3Cl)cccc2s1 [Example 3]
5 | < 100 | < 1000 | COc1cccc(/C=C/C(=O)NCC(=O)N(C)c2ccc(Cl)c(COc3cccc4sc(C)nc34)c2Cl)c1 [Example 11]
6 | < 100 | < 1000 | Cc1nc2c(OCc3c(Cl)ccc(N(C)C(=O)CNC(=O)/C=C/c4ccco4)c3Cl)cccc2s1 [Example 12]
